Measured values: US20160367529A1, “DEBILITY PREVENTATIVE” (AJINOMOTO CO., INC., priority 2014, published 2016)

Assay: Body weight of low protein model rat fed amino acid added diet
Type: in vivo
Conditions: vs 1% C group
Experimental: Using 10-week-old CD(SD) male rats, they were raised on a 1 wt % casein feed obtained by reducing the protein in standard purified diet AIN-93G (manufactured by Oriental yeast Co., Ltd.) (Table 14). The animal fed on the 1 wt % casein diet for 28 days (4 weeks) was used as a low protein model, and an influence of amino acid administration was evaluated. 10-week-old CD(SD) male rats were divided into the groups shown in Table 17, casein 20 wt % (20% C group) or 1 wt % feed was fed for 28 days according to the schedule shown in FIG. 1, and the body weight of rats thereafter fed with a 1 wt % casein diet (1% C group),and further added with each amino acid shown in Table 16 (4AA addition group (4AA group); a group of 4AA less tryptophan (−Trp group); a group of 4AA less methionine (−Met group); and a group of 4AA less threonine (−Thr group)) was measured. 10-week-old CD(SD) male rats were divided into the groups shown in Table 18, casein 20 wt % (20% C group) or 1 wt % feed was fed for 28 days according to the schedule shown in FIG. 1, and the body weight of rats thereafter fed with a 1 wt % casein diet (1% C group), and further added with the amino acid shown in Table 16 (4AA addition group (4AA group); an isoleucine and threonine combined use group (Ile, Thr group); an isoleucine addition group (Ile group); and the a threonine addition group (Thr group)) was measured. 10-week-old CD(SD) male rats were divided into the groups shown in Table 19, casein 20 wt % (20% C group) or 1 wt % feed was fed for 28 days according to the schedule shown in FIG. 1, and the body weight and weight of viscera-isolated carcass of rats thereafter fed for 14 days with a 1 wt % casein diet (1% C group), and further added with 1.15 g of the amino acid shown in Table 20 per 1 kg feed (4AA addition group (4AA group); a group of essential and non-essential amino acids addition group less 4AA (ALL-4AA group); essential amino acid addition group less 4AA (EAA-4AA group), non-essential amino acid addition group (NEAA group); and glycine addition group (Gly group)) was measured. […]

[1] = Experimental Example 4, 14 days after feeding amino acid added 1 wt % casein diet, FIG. 5

Row | Compound | body weight (ratio to day 0) (Experimental Example 5, 14 days after feeding diet with 1.15 g amino acid per 1 kg feed, FIG. 6) | body weight (ratio to day 0) [1]
1 | NCC(=O)O [Gly, glycine] | not recovered | –
2 | CC[C@H](C)[C@H](N)C(=O)O [Ile, isoleucine] | – | increase of the body weight was weakened
3 | C[C@@H](O)[C@H](N)C(=O)O [Thr, threonine] | – | significantly recovered
